According to patent US20190330226A1, “POSITIVE ALLOSTERIC MODULATORS OF THE MUSCARINIC ACETYLCHOLINE RECEPTOR M1” (Vanderbilt University, priority 2018, published 2019):

Molecular target: T1, human mAChR M1 (Homo sapiens, UniProt P11229)
T1 construct: host or cells: CHO-K1 (ATCC), stably transfected using Lipofectamine 2000
T1 sequence (P11229 1-460): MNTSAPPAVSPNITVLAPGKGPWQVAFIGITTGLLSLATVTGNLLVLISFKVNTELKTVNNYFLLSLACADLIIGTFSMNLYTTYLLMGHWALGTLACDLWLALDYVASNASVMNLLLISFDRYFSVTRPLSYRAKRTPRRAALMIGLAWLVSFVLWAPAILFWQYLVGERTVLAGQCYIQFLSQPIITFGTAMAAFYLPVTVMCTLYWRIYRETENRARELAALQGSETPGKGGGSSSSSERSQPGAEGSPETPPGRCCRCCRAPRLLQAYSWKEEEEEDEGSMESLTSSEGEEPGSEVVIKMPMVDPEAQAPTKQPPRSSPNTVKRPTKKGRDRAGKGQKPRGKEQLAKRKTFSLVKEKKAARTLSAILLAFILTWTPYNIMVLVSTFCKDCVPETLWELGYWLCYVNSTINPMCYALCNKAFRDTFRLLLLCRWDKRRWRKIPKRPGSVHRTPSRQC
Experiment: mAChR M1 cell-based functional assay (calcium mobilization, Fluo-4, FDSS)
Conditions: CHO-K1 cells stably expressing hM1, calcium flux; for Emax: PAM mode with EC20 acetylcholine; for EC50: concentration-dependent increase in the EC20 acetylcholine response
Excerpt: Chinese hamster ovary (CHO-K1) cells stably expressing rat (r)M1 were purchased from the American Type Culture Collection and cultured according to their indicated protocol. CHO cells stably expressing human (h)M2, hM3, and hM5 were described previously (Levey, et al., 1991); hM1 and hM4 cDNAs were purchased from Missouri S&T cDNA Resource; rM4 cDNA was provided by T. I. Bonner (National Institutes of Health, Bethesda, Md.). rM2 and rM3 were cloned from a rat brain cDNA library and sequence verified. hM1, rM2, rM3, hM4, and rM4 cDNAs were used to stably transfect CHO-K1 cells purchased from the American Type Culture Collection using Lipofectamine 2000. To make stable rM2, hM2, rM3, hM4, and rM4 cell lines for use in calcium mobilization assays, these cells also were stably transfected with a chimeric G-protein (Gqi5) (provided by B. R. Conklin, University of California, San Francisco) using Lipofectamine 2000. rM1, hM1, rM3, hM3, rM5, and hM5 cells were grown in Ham's F-12 medium containing 10% heat-inactivated fetal bovine serum (FBS), 20 mM HEPES, and 50 µg/mL G418 sulfate. rM2-Gqi5, hM2-Gqi5, and hM4-Gqi5 cells were grown in the same medium also containing 500 μg/mL Hygromycin B. Stable rM4-Gqi5 cells were grown in DMEM containing 10% heat-inactivated FBS, 20 mM HEPES, 400 μg/mL G418 sulfate, and 500 μg/mL Hygromycin B.
For high throughput measurement of agonist-evoked increases in intracellular calcium, CHO-K1 cells stably expressing muscarinic receptors were plated in growth medium lacking G418 and hygromycin at 15,000 cells/20 μL/well in Greiner 384-well black-walled, tissue culture (TC)-treated, clear-bottom plates (VWR). Cells were incubated overnight at 37° C. and 5% CO2. The next day, cells were washed using an ELX 405 (BioTek) with four washes ([…]) of assay buffer then aspirated to 20 μL. Next, 20 μL of 16 μM Fluo-4/acetoxymethyl ester (Invitrogen, Carlsbad, Calif.) prepared as a 2.3 mM stock in DMSO and mixed in a 1:1 ratio with 10% (w/v) Pluronic F-127 and diluted in assay buffer was added to the wells and the cell plates were incubated for 50 min at 37° C. and 5% CO2. Dye was removed by washing with the ELX 405 (four 80 μL washes of assay buffer) then aspirated to 20 μL. Compound master plates were formatted in an 11 point CRC format (1:3 dilutions) in 100% DMSO with a starting concentration of 10 mM using the BRAVO liquid handler (Agilent). Test compound CRCs were then transferred to daughter plates (240 nL) using the Echo acoustic plate reformatter (Labcyte, Sunnyvale, Calif.) and then diluted into assay buffer (40 μL) to a 2× stock using a Thermo Fisher Combi (Thermo Fisher Scientific, Waltham, Mass.).
Calcium flux was measured using the Functional Drug Screening System (FDSS) 6000 (Hamamatsu Corporation, Tokyo, Japan) as an increase in the fluorescent static ratio. Compounds were applied to cells (20 μL, 2×) using the automated system of the FDSS 6000 at 4 s into the 300 s protocol and the data were collected at 1 Hz. At 144 s into the 300s protocol, 10 μL of an EC20 concentration of the muscarinic receptor agonist acetylcholine was added (5×), followed by the addition of 12 μL an EC80 concentration of acetylcholine at the 230 s time point (5×). Agonist activity was analyzed as a concentration-dependent increase in calcium mobilization upon compound addition. Positive allosteric modulator activity was analyzed as a concentration-dependent increase in the EC20 acetylcholine response. Antagonist activity was analyzed as a concentration-dependent decrease in the EC80 acetylcholine response. Concentration-response curves were generated using a four-parameter logistical equation in XLfit curve fitting software (IDBS, Bridgewater, N.J.) for Excel (Microsoft, Redmond, Wash.) or Prism (GraphPad Software, Inc., San Diego, Calif.).
Activity (EC50 and Emax) was determined in the mAChR M1 cell-based functional assay as described above and the data are shown in Table 2. […]

| SMILES | Emax [%] | EC50 [µM] |
| --- | --- | --- |
| Cn1cc2c(-c3cc(F)c(CN4Cc5ccn(CC6CCOCC6)c5C4=O)c(F)c3)cccc2n1 [Compound 55, 5-(2,6-difluoro-4-(2-methyl-2H-indazol-4-yl)benzyl)-1-((tetrahydro-2H-pyran-4-yl)methyl)-4,5-dihydropyrrolo[3,4-b]pyrrol-6(1H)-one] | 59 | 8.98 |
| Cn1cc(-c2cc(F)c(CN3Cc4ccn(CC5CCCO5)c4C3=O)c(F)c2)cn1 (stereo not shown) [Compound 50, 5-(2,6-difluoro-4-(1-methyl-1H-pyrazol-4-yl)benzyl)-1-((tetrahydrofuran-2-yl)methyl)-4,5-dihydropyrrolo[3,4-b]pyrrol-6(1H)-one] | 38 | 3.44 |
| Cn1cc2cc(-c3cc(F)c(CN4Cc5ncsc5C4=O)c(F)c3)ccc2n1 [Compound 22, 5-(2,6-difluoro-4-(2-methyl-2H-indazol-5-yl)benzyl)-4,5-dihydro-6H-pyrrolo[3,4-d]thiazol-6-one] | 28 | 0.37 |
| Cc1ccc(-c2cc(F)c(CN3Cc4ncsc4C3=O)c(F)c2)cn1 [Compound 23, 5-(2,6-difluoro-4-(6-methylpyridin-3-yl)benzyl)-4,5-dihydro-6H-pyrrolo[3,4-d]thiazol-6-one] | 27 | – |
| CCCn1ccc2c1C(=O)N(Cc1c(F)cc(-c3cccc4nn(C)cc34)cc1F)C2 [Compound 10, 5-(2,6-difluoro-4-(2-methyl-2H-indazol-4-yl)benzyl)-1-propyl-4,5-dihydropyrrolo[3,4-b]pyrrol-6(1H)-one] | 59 | – |
| Cc1cc(-c2cc(F)c(CN3Cc4cnn(CC5CCCO5)c4C3=O)c(F)c2)ccn1 (stereo not shown) [Compound 39, 5-(2,6-difluoro-4-(2-methylpyridin-4-yl)benzyl)-1-((tetrahydrofuran-2-yl)methyl)-4,5-dihydropyrrolo[3,4-c]pyrazol-6(1H)-one] | 65 | 3.58 |
| Cn1cc2c(-c3cc(F)c(CN4Cc5ccn(C)c5C4=O)c(F)c3)cccc2n1 [Compound 4, 5-(2,6-difluoro-4-(2-methyl-2H-indazol-4-yl)benzyl)-1-methyl-4,5-dihydropyrrolo[3,4-b]pyrrol-6(1H)-one] | 36 | 1.88 |
| Cc1cc(-c2cc(F)c(CN3Cc4sccc4C3=O)c(F)c2)cc2cn[nH]c12 [Compound 29, 5-(2,6-difluoro-4-(7-methyl-1H-indazol-5-yl)benzyl)-5,6-dihydro-4H-thieno[2,3-c]pyrrol-4-one] | 45 | – |
| Cn1cc(-c2cc(F)c(CN3Cc4occc4C3=O)c(F)c2)cn1 [Compound 58, 5-(2,6-difluoro-4-(1-methyl-1H-pyrazol-4-yl)benzyl)-5,6-dihydro-4H-furo[2,3-c]pyrrol-4-one] | 78 | – |
| Cn1cc2cc(-c3cc(F)c(CN4Cc5sccc5C4=O)c(F)c3)ccc2n1 [Compound 26, 5-(2,6-difluoro-4-(2-methyl-2H-indazol-5-yl)benzyl)-5,6-dihydro-4H-thieno[2,3-c]pyrrol-4-one] | 59 | 1.02 |
| O=C1c2ccsc2CN1Cc1c(F)cc(-c2ccc3nccn3c2)cc1F [Compound 30, 5-(2,6-difluoro-4-(imidazo[1,2-a]pyridin-6-yl)benzyl)-5,6-dihydro-4H-thieno[2,3-c]pyrrol-4-one] | 30 | 0.5 |
| Cn1cc(-c2ccc(CN3Cc4sccc4C3=O)cc2)nn1 [Compound 48, 5-(4-(1-methyl-1H-1,2,3-triazol-4-yl)benzyl)-5,6-dihydro-4H-thieno[2,3-c]pyrrol-4-one] | 33 | – |
| Cc1nn(C)cc1-c1cc(F)c(CN2Cc3ccn(CC4CCCO4)c3C2=O)c(F)c1 (stereo not shown) [Compound 51, 5-(4-(1,3-dimethyl-1H-pyrazol-4-yl)-2,6-difluorobenzyl)-1-((tetrahydrofuran-2-yl)methyl)-4,5-dihydropyrrolo[3,4-b]pyrrol-6(1H)-one] | 51 | 3.45 |
| Cn1cc(-c2ccc(CN3Cc4ccsc4C3=O)c(F)c2)cn1 [Compound 32, 5-(2-fluoro-4-(1-methyl-1H-pyrazol-4-yl)benzyl)-4,5-dihydro-6H-thieno[2,3-c]pyrrol-6-one] | 67 | 4.9 |
| O=C1c2c(ccn2CC2CCCO2)CN1Cc1c(F)cc(-c2ccc3nccn3c2)cc1F (stereo not shown) [Compound 52, 5-(2,6-difluoro-4-(imidazo[1,2-a]pyridin-6-yl)benzyl)-1-((tetrahydrofuran-2-yl)methyl)-4,5-dihydropyrrolo[3,4-b]pyrrol-6(1H)-one] | 33 | 2.15 |
| Cn1cc(-c2cc(F)c(CN3Cc4ncsc4C3=O)c(F)c2)cn1 [Compound 14, 5-(2,6-difluoro-4-(1-methyl-1H-pyrazol-4-yl)benzyl)-4,5-dihydro-6H-pyrrolo[3,4-d]thiazol-6-one] | 40 | – |
| Cn1cc2cc(-c3cc(F)c(CN4Cc5ccn(CC6CCCO6)c5C4=O)c(F)c3)ccc2n1 (stereo not shown) [Compound 8, 5-(2,6-difluoro-4-(2-methyl-2H-indazol-5-yl)benzyl)-1-((tetrahydrofuran-2-yl)methyl)-4,5-dihydropyrrolo[3,4-b]pyrrol-6(1H)-one] | 33 | 3.85 |
| Cn1cc(-c2cc(F)c(CN3Cc4cn(CC5CCCO5)nc4C3=O)c(F)c2)cn1 (stereo not shown) [Compound 34, 5-(2,6-difluoro-4-(1-methyl-1H-pyrazol-4-yl)benzyl)-2-((tetrahydrofuran-2-yl)methyl)-4,5-dihydropyrrolo[3,4-c]pyrazol-6(2H)-one] | 35 | – |
| Cn1cc2c(-c3cc(F)c(CN4Cc5ccn(CCCO)c5C4=O)c(F)c3)cccc2n1 [Compound 54, 5-(2,6-difluoro-4-(2-methyl-2H-indazol-4-yl)benzyl)-1-(3-hydroxypropyl)-4,5-dihydropyrrolo[3,4-b]pyrrol-6(1H)-one] | 69 | 5.58 |
| Cn1cc2c(-c3cc(F)c(CN4Cc5ccn(CC6CCCO6)c5C4=O)c(F)c3)cccc2n1 (stereo not shown) [Compound 49, 5-(2,6-difluoro-4-(2-methyl-2H-indazol-4-yl)benzyl)-1-((tetrahydrofuran-2-yl)methyl)-4,5-dihydropyrrolo[3,4-b]pyrrol-6(1H)-one] | 60 | 6.45 |
| Cn1cc2c(-c3cc(F)c(CN4Cc5cnn(CCO)c5C4=O)c(F)c3)cccc2n1 [Compound 24, 5-(2,6-difluoro-4-(2-methyl-2H-indazol-4-yl)benzyl)-1-(2-hydroxyethyl)-4,5-dihydropyrrolo[3,4-c]pyrazol-6(1H)-one] | 80 | 0.91 |
| Cn1cnc2ccc(-c3cc(F)c(CN4Cc5sccc5C4=O)c(F)c3)cc21 [Compound 27, 5-(2,6-difluoro-4-(1-methyl-1H-benzo[d]imidazol-6-yl)benzyl)-5,6-dihydro-4H-thieno[2,3-c]pyrrol-4-one] | 60 | 2.87 |
